Test results: patent US8324273B2 (XenoPort, Inc., priority 2006, dated 2012)
Values belong to the molecule of their own block, whether it stands above or below them.

Legend:
[1] = Hygroscopicity of crystalline hydrogen fumarate (21) crystallized from various solvents; type: physicochemical
Description: (1R)-2-Acetyloxy-1-methylethyl (2S)-2-amino-3-[3,4-bis(ethoxycarbonyloxy)phenyl]propanoate hydrogen fumarate (21) was crystallized using the solvents listed in Table 1 on a 100 mg scale.

[2] = following oral administration of NB-355; cited from earlier work
[3] = Intracolonic bioavailability of levodopa prodrugs in monkeys; type: in vivo, male Cynomologous monkeys; conditions: male, monkey, whole blood, intravenous, 10 mg; read-out: mean AUCinf
Description: Male Cynomologous monkeys weighing about 3.0 kg were used in the studies. Monkeys are fasted overnight prior to the study until 4 hours after dosing. Water was provided ad libitum.
Carbidopa was prepared as a solution (0.72 mg/mL) in sodium acetate buffer pH 5.16.
Blood samples were collected at pre-dose and at 0.17, 0.25, 0.5, 0.75, 1, 2, 4, 6, 8, 12, and 24 hours post-dose. About 0.3 mL of blood was collected in pre-chilled K2EDTA tubes containing 100 μL of 10% sodium metabisulfite. The contents were gently vortexed at low speed to ensure that the sampled blood came into contact with sodium metabisulfite while maintaining ice on the samples at all times. About 0.1 mL of the anticoagulated blood was added to each of 2 pre-chilled cryovials that each contained about 0.3 mL of quenching media (89.3% v/v methanol and 10.7% v/v 4N perchloric acid) within 5 minutes of bleed. Within 30 minutes of blood collection, the samples were centrifuged at about 3,000 rpm, 4° C., for 10 min. The samples were then stored at −70° C.
Blood samples were analyzed as described in Example 30.

Hygroscopicity ([1]; crystallized from acetonitrile-methyl tert-butyl ether): None
Hygroscopicity ([1]; crystallized from ethyl acetate): None
Hygroscopicity ([1]; crystallized from ethyl acetate-diisopropyl ether): None
Hygroscopicity ([1]; crystallized from ethyl acetate-methyl tert-butyl ether): None
melting point: 78.1 to 80.7 °C
Structure (SMILES): CCOC(=O)Oc1ccc(C[C@H](N)C(=O)O[C@H](C)COC(C)=O)cc1OC(=O)OCC.O=C(O)/C=C/C(=O)O [Compound 21, (1R)-2-Acetyloxy-1-methylethyl (2S)-2-Amino-3-[3,4-bis(ethoxycarbonyloxy)phenyl]propanoate Hydrogen Fumarate]

Structure (SMILES): CC(C)(C)C(=O)Oc1ccc(C[C@H](N)C(=O)O)cc1O [NB-355]
duration of circulating levodopa [2]: prolonged
plasma concentrations of levodopa [2]: low

AUC(0-inf) [3]: 3690 ng·h/mL
Structure (SMILES): N[C@@H](Cc1ccc(O)c(O)c1)C(=O)O [levodopa, L-3,4-dihydroxyphenylalanine]
